The test system of data set [1] is Caco-2 cell monolayers. The settings on record: cited from earlier work.
Protocol: To elucidate the transepithelial transport pathway of WGAPSL, some inhibitors, such as cytochalasin D, wortmannin, sodium azide, and Gly-Pro, were added to Caco-2 cell monolayers (Figure 4).
The subject of data set [2] is Caco-2 cell monolayers. The settings on record: cited from earlier work. The source holds these as a separate data set.
Description: The apparent permeability coefficient (Papp) value reflects the velocity of passage through the epithelium.
Data set [3] in a line: Caco-2 cell monolayers in HBSS, apical (AP) and basolateral (BL) sides. The settings on record: human, 37 °C, up to 120 min.
The subject of data set [4] is 1:10,000 pepsin, then 1:250 trypsin. The experiment in a line: simulated gastrointestinal digestion: pepsin in HBSS at pH 2.0, then trypsin at pH 7.5. The settings on record: 37 °C, up to 90 min (pepsin) then 4 h (trypsin).
A further data set can be described thus: CCK-8 cytotoxicity assay. It counts as cell-based, human. The settings on record: human, Caco-2, 10 mM peptide in DMEM, 2 h incubation then 4 h with CCK-8, 37 °C, absorbance, three replications, read-out: Survival rate of Caco-2 cells. The method, then: (§1) The effects of the WGAPSL peptide on Caco-2 cell proliferation were observed using the CCK-8 cell counting kit (Dojindo, Japan). The WST-8 (2-(2-methoxy-4-nitrophenyl)-3-(4-nitrophenyl)-5-(2,4-disulfophenyl)-2H-tetrazolium, monosodium salt) reagent was used based on the kit specifications. Caco-2 cells were plated in 96-well culture plates in a final volume of 100 μL/well of culture medium (1 × 10^5 cells/well) at 37 °C in 5% CO2 for 24 h and incubated with 1–10 mM WGAPSL (diluted in DMEM) or DMEM only for 2 h, followed by incubation with 10 μL CCK-8 and incubation for another 4 h and then the absorbance was measured.

The test system of another data set is Caco-2 cells. The experiment in a line: CCK-8 cytotoxicity assay. The note with it: 2 h incubation then 4 h with CCK-8, 37 °C, absorbance, three replications. The class given is cell-based, human. The method, then:
as §1

The next data set has as its system pepsin and trypsin. The experiment in a line: Simulated gastrointestinal digestion (two-stage pepsin then trypsin hydrolysis). The class given is in vitro ADME. The settings on record: 1 mg/mL in HBSS, pepsin pH 2.0, E/S 1:50 w/w, 37 °C, 90 min, then trypsin pH 7.5, E/S 1:50 w/w, 4 h, LC-MS, mean ± spread. How it is done:
Simulated gastrointestinal digestion was done based on the method of Quirós et al.. Synthetic peptide (1 mg/mL) was prepared in HBSS and acidified with HCl to reach pH 2.0, then hydrolyzed with 1:10,000 pepsin at an enzyme/substrate ratio of 1:50 (w/w), and incubated in constant temperature water oscillation at 37 °C for 90 min with a low shaking rate (120 rpm). After gastric digestion, samples were adjusted to pH 7.5 with saturated NaHCO3 and 1:250 trypsin was added at an enzyme/substrate ratio of 1:50 (w/w), and incubated in constant temperature water oscillation at 37 °C for 4 h with a low shaking rate (120 rpm). Reactions were stopped in a boiling water bath for 10 min. Digested samples were centrifuged (3K15, SIGMA Laborzentrifugen GmbH, Germany) at 30,000× g at 4 °C for 20 min and diluted 100 times to analyze peptide concentrations using liquid chromatography-tandem mass spectrometry (LC-MS, 1200, Agilent, CA, USA).

The test system of data set [5] is Caco-2 cell monolayers. The experiment in a line: Transepithelial transport across Caco-2 cell monolayers. It counts as in vitro ADME, human. The settings on record: concluded from the efflux ratio in Caco-2 monolayers. How it is done: Caco-2 cells were obtained from China Infrastructure of Cell Line Resource (Beijing, China) and were cultured based on the method of Zhang et al.. Cells were cultured in MEM containing 10% fetal bovine serum, 1 mM nonessential amino acid solution, 1% penicillin-streptomycin, and 1% HEPES buffer. Caco-2 cells were seeded at 5 × 10^5 cells/mL in 25 cm^2 tissue culture flasks, and incubated at 37 °C in 5% CO2 with 95% humidity. The passage number of the cells used in the study was between 30 and 40. The medium in cell cultures were replaced every two days and detached from 70–80% confluency using 0.05% trypsin and 0.02% Ethylene Diamine Tetraacetic Acid (EDTA) solution. For the transport experiments, Caco-2 cells were seeded into a collagen-coated transwell plate (6.5 mm diameter, 0.4 μm pore size Corning Costar) at a density of 1 × 10^5 cells/well. […]
The bilateral transport experiments also assessed transport from the BL to AP side. […]
The Papp values were calculated as follows (Equation (1)):(1) Papp=dQ/dt×1/A×1/C0 where dQ/dt is the permeability rate (mmol/s); A is the membrane area (cm^2); and C0 is the initial concentration of peptide solution in the donor chamber (mM). […]
A standard curve was prepared with a synthetic peptide diluted in HBSS, and the peptide concentrations were 0–3.9 μM. The curve was analyzed as indicated above for the BL samples. […]
Background: Caco-2 cells form a polarised layer with tight junctions and transporters.

In data set [6] the test system is Caco-2 cell monolayers. The experiment in a line: Effects of transport pathway inhibitors on peptide transport in Caco-2 cell monolayers. The class given is in vitro ADME, human. The settings on record: Caco-2 AP→BL, 2 mM in HBSS pH 7.4, 120 min, LC-MS. The method, then:
Prior to transport experiments, Caco-2 cell monolayers were gently rinsed with HBSS, and then incubated for 30 min at 37 °C in 5% CO2. Afterwards, HBSS was drawn from both the AP side and BL side of all wells. HBSS (0.1 mL) with 2 mM WGAPSL was added to the AP side and 0.6 mL of fresh HBSS was added to the BL side. All transwell plates were incubated at 37 °C in 5% CO2 for 30, 60, 90, or 120 min. The transport experiment was done in triplicate for three consecutive days after 21 days, in which the cell model was developed.
Four inhibitors, including transport inhibitors cytochalasin D (a cell tight junction disruptor, 0.5 μg/mL), wortmannin (transcytosis inhibitor, 500 nM), sodium azide (ATP synthesis inhibitor, 10 mM), and Gly-Pro (transport peptide PepT 1 substrate, 10 mM) were applied to identify the transport routes of the peptide. After 120 min, the concentration of the peptide was determined in the basolateral samples [6].
Analysis of AP and BL samples gathered after the transport of WGAPSL across Caco-2 cells was performed by Agilent LC-MS (6420 Triple Quad, […]). A symmetrical 4.6 × 250 mm C18 column (GL Sciences, Tokyo, Japan) was used for fragments separations. The analysis was done in the MS Scan mode, and the injection volume was set to 20 μL. The peptide was applied in formic acid as an organic regulator to improve the MS signal of the peptide. Solvents A and B were formic acid/milli Q water (0.1:100, v/v) and formic acid/acetonitrile (0.1:100, v/v). For WGAPSL, the sample elution was run at 0.7 mL/min using a linear gradient of solvent B in A from 18% to 43% for 25 min, 43–100% for 5 min, and 100–18% for 10 min to equalize the column. The accumulation and ionization conditions in the ion trap were optimized automatically, and the target mass of the molecular ion was as follows: m/z 630.633 (WGAPSL).

“Also recorded” adds a separate entry of the source. Where no end group is shown, it is not given here.

On to Gln-Ile-Gly-Leu-Phe [QIGLF], for which the “Change of Papp value after cytochalasin D treatment” value in the data set with Caco-2 cell monolayers [1] is listed as “significantly (p < 0.05) increased”.
Regarding Val-Pro-Pro [VPP], in the data set on Caco-2 cell monolayers [2], the Papp value is 0.005 ×10⁻⁶ cm/s.
Regarding WGAPSL, the cleaved bond entry in data set [3] is given as “W-G, 120 min; also recorded: P-S, 120 min; also recorded: S-L, 120 min”. Also, in [4], the fragment found entry was “APSL and PSL and GAPSL and WGA and WG”.
Regarding “WGAPSL [WGAPSL, Trp-Gly-Ala-Pro-Ser-Leu]”, the viability at 2 h, 10000 µM in the data set “CCK-8 cytotoxicity assay” stood at 27%. The “Cytotoxicity for Caco-2 cells” value in the data set on Caco-2 cells (1 mM peptide in DMEM) and with Caco-2 cells (2 mM peptide in DMEM) was “non-toxic” in each case. Moreover, the “Stability (intact peptide) after simulated gastric and intestinal digestion” value with pepsin and trypsin is given as 83.9% ± 1.98. In the data set on Caco-2 cell monolayers [5], the P-glycoprotein substrate status result was “not a substrate of P-glycoprotein”. Further, the “Effect of wortmannin on peptide concentration (BL side)” value with Caco-2 cell monolayers [6] (30 min preincubation with 500 nM wortmannin (transcytosis inhibitor)) is “did not significantly (p > 0.05) affect”. The “Effect of Gly-Pro on peptide transport” value in the data set on Caco-2 cell monolayers [6] (30 min preincubation with 10 mM Gly-Pro (PepT1 substrate)) is reported as “not significantly (p > 0.05) decreased”. In the data set on Caco-2 cell monolayers [6] (30 min preincubation with 10 mM sodium azide (ATP synthesis inhibitor)), the “Effect of sodium azide on peptide transport” value is recorded as “A similar result”. In addition, in the data set with Caco-2 cell monolayers [6] (30 min preincubation with cytochalasin D 0.5 μg/mL (tight junction disruptor), p < 0.05), the “Increase of peptide concentration in the BL side vs control, with cytochalasin D” value was 66%.

The record behind these values is article PMC6696373 (Molecules, 2019).
